ChEMBL document CHEMBL6096740, “Discovery and Optimization of a Series of Novel Morpholine-Containing USP1 Inhibitors” (J Med Chem, 2025)

Columns and labels:
[1] = Metabolic stability in mouse liver microsome assessed as intrinsic clearance preincubated for 5 mins followed by NADPH addition and measured after 120 mins by LC-MS/MS analysis; format: ADME; settings: liver microsomes, time 125 min, read-out: CLH
[2] = Cmax in ICR mouse at 10 mg/kg, po measured up to 24 hrs; format: ADME, organism-based; settings: in vivo
[3] = Metabolic stability in dog liver microsome assessed as intrinsic clearance preincubated for 5 mins followed by NADPH addition and measured after 120 mins by LC-MS/MS analysis; format: ADME, Canis lupus familiaris; settings: liver microsomes, time 125 min, read-out: CLH
[4] = Metabolic stability in rat liver microsome assessed as intrinsic clearance preincubated for 5 mins followed by NADPH addition and measured after 120 mins by LC-MS/MS analysis; format: ADME; settings: liver microsomes, time 125 min, read-out: CLH
[5] = AUC (0 to t) in ICR mouse at 10 mg/kg, po measured up to 24 hrs; format: ADME, organism-based; settings: in vivo
[6] = Metabolic stability in rat liver microsome assessed as half life preincubated for 5 mins followed by NADPH addition and measured after 120 mins by LC-MS/MS analysis; format: ADME; settings: liver microsomes, time 125 min
[7] = Half life in ICR mouse at 10 mg/kg, po measured up to 24 hrs; format: ADME, organism-based; settings: in vivo
[8] = Tmax in ICR mouse at 10 mg/kg, po measured up to 24 hrs; format: ADME, organism-based; settings: in vivo
[9] = Metabolic stability in monkey liver microsome assessed as intrinsic clearance preincubated for 5 mins followed by NADPH addition and measured after 120 mins by LC-MS/MS analysis; format: ADME, Macaca mulatta; settings: rhesus monkey, liver microsomes; time 125 min; read-out: CLH
[10] = AUC (0 to infinity) in ICR mouse at 10 mg/kg, po measured up to 24 hrs; format: ADME, organism-based; settings: in vivo
[11] = Metabolic stability in mouse liver microsome assessed as half life preincubated for 5 mins followed by NADPH addition and measured after 120 mins by LC-MS/MS analysis; format: ADME; settings: liver microsomes, time 125 min
[12] = Metabolic stability in human liver microsome assessed as intrinsic clearance preincubated for 5 mins followed by NADPH addition and measured after 120 mins by LC-MS/MS analysis; format: ADME; settings: liver microsomes, time 125 min, read-out: CLH
[13] = Metabolic stability in human liver microsome assessed as half life preincubated for 5 mins followed by NADPH addition and measured after 120 mins by LC-MS/MS analysis; format: ADME; settings: liver microsomes, time 125 min
[14] = Metabolic stability in dog liver microsome assessed as half life preincubated for 5 mins followed by NADPH addition and measured after 120 mins by LC-MS/MS analysis; format: ADME, Canis lupus familiaris; settings: liver microsomes, time 125 min
[15] = Metabolic stability in monkey liver microsome assessed as half life preincubated for 5 mins followed by NADPH addition and measured after 120 mins by LC-MS/MS analysis; format: ADME, Macaca mulatta; settings: rhesus monkey, liver microsomes; time 125 min

CLint scaled [1]: 90.8 mL/min/kg | Cmax [2]: 3510 ng/mL | CLint scaled [3]: 30 mL/min/kg | CLint scaled [4]: < 20.7 mL/min/kg | AUC(0-t) at 24 h [5]: 13300 ng·h/mL | half-life [6]: > 120 min | half-life [7]: 115 min | Tmax [8]: 15 min | CLint scaled [9]: 33.9 mL/min/kg | AUC(0-inf) [10]: 14200 ng·h/mL | half-life [11]: 60.1 min | CLint scaled [12]: 20.3 mL/min/kg | half-life [13]: 85.7 min | half-life [14]: 115 min | half-life [15]: 59.8 min
Structure (SMILES): COc1ncnc(C2CC2)c1-c1nc(N2CCOC[C@H]2c2ccc(-c3nc(C(F)(F)F)cn3C(C)C)cc2)c2occc2n1
